Measurements as given in article PMC4820820, “CETSA screening identifies known and novel thymidylate synthase inhibitors and slow intracellular activation of 5-fluorouracil” (Nature Communications, 2016).
Values joined by “and” are separate entries in the source; they are usually repeats but may differ in a detail not shown here. Identical values can stand only once. Like-named read-outs stand apart in the source and are kept apart here.

Experiments:
[1] = biological target: T1, human thymidylate synthase (TS) (Homo sapiens, UniProt P04818); assay: ITDRF CETSA at 50 °C, AlphaScreen detection, live K562 cells; assay type: cell-based; conditions: for EC50: 2 h preincubation
T1 construct: screening in live, non-engineered cells expressing thymidylate synthase; endogenous in cells; host or cells: K562 (human myelogenous leukemia) cells
Procedure: For the […] experiments 11-point dose-response curves with three-fold difference in concentration between wells were generated using the Bravo liquid handling system (all serial dilutions were done in 100% DMSO). […] The concentration of DMSO was 0.5% in all samples. […] The assay ready plates were prepared as outlined above for the screen.
(§1) The screen procedure started with the addition of 5 μl of a suspension of K562 cells at a density of 10 million cells per ml to all wells of a 384 well hardshell PCR plate (HSR480, BIORAD) using an electronic multichannel pipette (Biohit). […] For the time-course experiments the incubation times were altered to include also 10 min, 30 min and 6 h. […] After the incubation step the plates were transiently heated at 50 °C for 3 min followed by a controlled cooling to 20 °C for 1 min using a real-time PCR machine (LightCycler480 system, Roche). Plate handling was then as described above for the thermal aggregation experiments. The data were analyzed using microsoft excel and GraphPad Prism 6.
(§2) A calculation of the average and standard error of means for each set of controls also allowed an illustration of how these responses varied over the 32 screening plates. The Z′ factor[38] is commonly used as a measure of how well the assay separates between the controls and this was calculated as described based on the calculated averages and standard deviations of the controls on a per plate basis. For the Tagg shift and the […] experiments the data were analyzed in GraphPad Prism using the Boltzmann sigmoid equation and the saturation binding curve (rectangular hyperbola; binding isotherm) function, respectively. As already discussed[14] these methods make use of equilibrium models for data analysis although the methodology depends on the irreversible aggregation of denatured material. For this reason we refer to the observed responses as apparent and isothermal dose-response fingerprints and are careful with any quantitative interpretations, being well aware of their dependency on experimental conditions. Experiments are on-going to address the quantitative interpretation of CETSA data.

[2] = biological target: T1, human thymidylate synthase (TS); assay: CETSA primary screen / single-concentration retest, AlphaScreen, live K562 cells; assay type: cell-based; conditions: for % stabilization in screen at 50 µM: K562, 2 h, read-out: % stabilization in screen; for % stabilization at retest (6h preincubation): K562 cells
Procedure: Compounds were placed in columns 1–22. […] At the day of the experiment the plates were allowed to thaw for 30 min followed by a brief centrifugation step (1,000 × g for 1 min) prior to removal of the seal. The compounds were then diluted with 20 μl supplemented cell culture medium using a Multidrop Combi reagent dispenser (Thermo Scientific). Finally 5 μl of the diluted compounds were transferred to a 384 well hardshell PCR plate (HSR480, BIORAD) using a Bravo liquid handling platform equipped with a 384-well head (Agilent). […] The final concentration of DMSO in the assay was 0.5% in all samples.
as §1, §2

TS = TS (Homo sapiens, UniProt P04818); assay: Thermal shift in vitro assay on recombinant protein; assay type: binding; set-up: His6 tag with TEV site (vector-encoded by pNIC28-Bsa4); made in house; host or cells: Rosetta BL21-DE3 Escherichia coli; conditions: nucleoside without enzyme treatment
Procedure: The assay was performed on the iCycler iQ Real Time PCR Detection System (Bio-Rad), using the 96-well thin-wall PCR plate (Bio-Rad). The experiment was conducted in a buffer containing 20 mM HEPES at pH 7.5 and 150 mM NaCl. A total volume of 25 μl solution containing 0.2 mg ml^−1 protein, compounds and × 5 Sypro Orange dye (Invitrogen) diluted from 5,000 × stock was dispensed into the 96-well plate. The same amount of DMSO was added in the control wells. The plates were sealed with Microseal B adhesive sealer (Bio-Rad) and heated in iCycler from 25 to 80 °C (56 heating cycles in 28 min). Fluorescent filter used for Sypro Orange measurements was λexcitation=492 nm and λemission=610 nm. The calculation of the midpoint of the curves (Tm) was performed using the software package XLfit from IDBS within microsoft excel.
Decitabine at a concentration of 1 mM was incubated with 1 mg ml^−1 of recombinant DCK and 2.5 mM ATP in a buffer of 50 mM Tris at pH 7.5, 150 mM NaCl and 0.5 mM MgCl2 at room temperature for 60 min to generate the corresponding monophosphates. To probe for nucleotide deamination the samples were further treated with 1 mg ml^−1 of recombinant DCTD in the presence of 1 mM ATP and 10 μM ZnCl2 for 20 min at room temperature. After incubation, the samples were heated at 95 °C for 10 min and centrifuged for 10 min at the highest speed at 4 °C using a benchtop centrifuge. The supernatant was tested without dilution in thermal shift in vitro assays and the TS enzyme inhibition assay. The supernatants from samples without nucleoside were used as the treatment controls.

[3] = biological target: T1, human thymidylate synthase (TS); assay: CETSA Tagg curves, AlphaScreen detection, live K562 cells; assay type: cell-based; conditions: 2 h preincubation, 3 min heating, DMSO control 46.7±0.2 °C
Procedure: The data were analyzed using microsoft excel and GraphPad Prism 6.
as §2

[4] = 50 °C, unit taken from curve axis log [cmp] (M), read-out: ITDRF CETSA (hit confirmation)
[5] = 50 μM compound, 2 h preincubation, 50 °C, 0% = DMSO, 100% = 100 nM raltitrexed

TS, sequence (P04818 whole entry): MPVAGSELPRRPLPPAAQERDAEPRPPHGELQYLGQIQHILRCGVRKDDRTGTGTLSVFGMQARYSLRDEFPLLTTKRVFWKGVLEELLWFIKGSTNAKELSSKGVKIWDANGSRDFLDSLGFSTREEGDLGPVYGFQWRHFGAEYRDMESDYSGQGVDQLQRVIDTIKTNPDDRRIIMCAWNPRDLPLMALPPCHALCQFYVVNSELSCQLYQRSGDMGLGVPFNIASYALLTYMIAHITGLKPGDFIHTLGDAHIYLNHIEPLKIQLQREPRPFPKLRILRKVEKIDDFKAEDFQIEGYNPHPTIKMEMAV
T1 sequence (P04818 2-313 limits assumed): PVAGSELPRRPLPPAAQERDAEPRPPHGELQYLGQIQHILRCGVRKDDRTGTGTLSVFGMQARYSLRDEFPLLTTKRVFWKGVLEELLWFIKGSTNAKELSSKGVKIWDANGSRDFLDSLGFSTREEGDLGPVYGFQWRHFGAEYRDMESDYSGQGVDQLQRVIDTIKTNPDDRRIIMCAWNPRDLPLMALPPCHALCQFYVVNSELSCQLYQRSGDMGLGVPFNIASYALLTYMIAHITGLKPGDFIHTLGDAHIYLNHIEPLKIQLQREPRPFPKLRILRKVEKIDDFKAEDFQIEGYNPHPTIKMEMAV

Compound | % stabilization in screen [2, 5] | other results
O=c1[nH]c(=O)n([C@@H]2O[C@H](CO)[C@@H](O)[C@H]2O)cc1F [5-fluorouridine] |  | EC50 ([1]; 50 °C for 3 min, read-out: […] EC50 (half-maximal stabilization of TS)): 4.7e-08 ± 1.5e-08 M
CCc1nc(N)nc(N)c1-c1ccc(Cl)cc1 [CBK041886, Pyrimethamine, reference compound] |  | EC50 [1, 4]: 8.38e-06 M; % stabilization in screen at 50 µM [2]: 76%
CC#Cc1cn([C@H]2C[C@@H](O)[C@@H](CO)O2)c(=O)[nH]c1=O [CBK201182] | 90% | EC50 [1, 4]: 2.28e-05 M
Cc1cc(C)c(Oc2nc(=O)n([C@H]3C[C@@H](O)[C@@H](CO)O3)cc2F)c(C)c1 [CBK201184] | 66% | EC50 [1, 4]: 9.17e-06 M
C#Cc1cn([C@H]2C[C@H](O)[C@@H](CO)O2)c(=O)[nH]c1=O [CBK201207, 5-ethynyl-2′-deoxyuridine, reference compound] |  | EC50 [1, 4]: 1.41e-09 M; % stabilization in screen at 50 µM [2, 5]: 102%
Nc1nc(=O)n([C@H]2C[C@@H](O)[C@@H](CO)O2)cc1O [CBK201221] | 22% | EC50 [1, 4]: 3.43e-07 M
COCc1cn(C2CC(O)C(CO)O2)c(=O)[nH]c1=O (centres unmarked) [CBK201230] | 23% | EC50 [1, 4]: 1.42e-07 M
Cc1cn(C2CC(O)C(C3N(c4ccccc4)CCN3c3ccccc3)O2)c(=O)[nH]c1=O (centres unmarked) [CBK201232] | -1% | 
O=c1nc2c(cn1[C@H]1C[C@@H](O)[C@@H](CO)O1)Sc1ccccc1N2 [CBK201237] | 9% | 
O=c1[nH]c(=O)n([C@H]2C[C@@H](O)[C@@H](CO)O2)cc1CCO [CBK201239] | 17% | 
O=C(NC/C=C/c1cn(C2CC(O)C(CO)O2)c(=O)[nH]c1=O)C(F)(F)F (centres unmarked) [CBK201249] | 17% | 
COC1C(O)C(CO)OC1n1cc(C)c(=O)[nH]c1=O (centres unmarked) [CBK201251] | -1% | 
COC1C(O)C(CO)OC1n1cc(F)c(=O)[nH]c1=O (centres unmarked) [CBK201253] | 61% | 
Nc1cccc(-c2cn([C@H]3C[C@@H](O)[C@@H](CO)O3)c(=O)[nH]c2=O)c1 [CBK201262] | 16% | 
Cc1cn([C@@H]2O[C@H](CO)[C@H](O)C2O)c(=O)[nH]c1=O (some centres unmarked) [CBK201265] | 17% | 
O=C(O)/C=C/c1cn([C@@H]2O[C@H](CO)[C@H](O)C2O)c(=O)[nH]c1=O (some centres unmarked) [CBK201270] | -1% | 
Nc1ccn([C@H]2C[C@@H](O)[C@@H](CO)O2)c(=O)n1 [CBK201274] | -1% | 
C#CCOc1cn([C@H]2C[C@@H](O)[C@@H](CO)O2)c(=O)[nH]c1=O [CBK201278] | 7% | % stabilization at retest (6h preincubation) [2]: 12%
COC1C(O)C(CO)OC1n1cc(F)c(Oc2c(C)cc(C)cc2C)nc1=O (centres unmarked) [CBK201279] | 0% | 
Cc1cn2c(nc1=O)OC[C@H]1O[C@@H]2C[C@H]1O [CBK201280] | 0% | 
Cn1c(=O)ccn([C@@H]2O[C@H](CO)[C@H](O)C2O)c1=O (some centres unmarked) [CBK201281] | -1% | 

Compound | % stabilization in screen [2, 5] | other results
Cc1ccc(S(=O)(=O)OC[C@H]2O[C@@H](n3ccc(=O)[nH]c3=O)C[C@H]2O)cc1 [CBK201283] | -2% | 
Cc1cc2cn([C@H]3C[C@@H](O)[C@@H](CO)O3)c(=O)nc2o1 [CBK201287] | 20% | 
O=C(NC/C=C/c1cn(C2OC(CO)C(O)C2O)c(=O)[nH]c1=O)C(F)(F)F (centres unmarked) [CBK201298] | -1% | 
Cc1cc2cn([C@H]3C[C@@H](O)[C@@H](CO)O3)c(=O)nc2[nH]1 [CBK201302] | 21% | 
O=c1[nH]c(=O)n([C@@H]2O[C@H](CO)[C@H](O)C2O)cc1I (some centres unmarked) [CBK201304] | -1% | 
Nc1nc(=O)n([C@@H]2O[C@H](CO)[C@H](O)C2O)cc1I (some centres unmarked) [CBK201306] | -1% | 
Cc1cn([C@H]2C[C@@H](O)[C@@H](CO)O2)c(=O)nc1N.Cl [CBK201307] | 4% | 
O=C(/C=C/c1cn(C2CC(O)C(CO)O2)c(=O)[nH]c1=O)NCCCCCCNC(=O)C(F)(F)F (centres unmarked) [CBK201310] | 15% | 
Cc1cn([C@H]2C[C@@H](O)[C@@H](CN)O2)c(=O)[nH]c1=O [CBK201315] | -1% | 
O=c1ccn([C@H]2C[C@@H](O)[C@@H](CO)O2)c(=O)[nH]1 [CBK201316] | -1% | 
O=c1[nH]c(=O)n([C@H]2C[C@@H](O)[C@@H](CO)O2)cc1O [CBK201317] | 16% | 
Cc1cn([C@H]2C[C@@H](O)[C@@H](CO)O2)c(=O)n(CCC#N)c1=O [CBK201322] | -1% | 
CN(C)/C=N/c1nc(=O)n([C@H]2CC(O)[C@@H](CO)O2)cc1/C=C/C(=O)NCCCCCCNC(=O)C(F)(F)F (some centres unmarked) [CBK201330] | 13% | 
O=c1[nH]c(=O)n([C@H]2C[C@@H](O)[C@@H](CO)O2)cc1CO [CBK201332] | 9% | % stabilization at retest (6h preincubation) [2]: 7%
CCOc1nc(=O)c(C)cn1C1CC(O)C(CO)O1 (centres unmarked) [CBK201334] | -1% | 
COC(=O)/C=C/c1cn(C2OC(CO)C(O)C2O)c(=O)[nH]c1=O (centres unmarked) [CBK201339] | -1% | 
O=c1[nH]c(=O)n([C@H]2C[C@H](O)[C@@H](CO)O2)cc1C(F)(F)F [TFT, 5-trifluoro-2′-deoxythymidine] |  | EC50 [1, 4]: 3.18e-10 M; % stabilization in screen at 50 µM [2]: 66%; stabilization of recombinant TS in thermal shift assay (TS): did not stabilize
O=c1ccn([C@H]2C[C@H](O)[C@@H](CO)O2)c(=O)[nH]1 [deoxyuridine] |  | stabilization of recombinant TS in thermal shift assay (TS): did not stabilize
O=c1[nH]c(=O)n([C@H]2C[C@H](O)[C@@H](CO)O2)cc1F [floxuridine, 5-fluorodeoxyuridine] |  | concentration giving stabilization of TS (CETSA) ([1]; 10 min of pre-incubation): low nM; EC50 [1, 4]: 6.61e-11 M; EC50 ([1]; ITDRFCETSA EC50 (half-maximal stabilization of TS), 50 °C for 3 min, read-out: […] EC50 (half-maximal stabilization of TS)): 6.5e-11 M and 4.7e-11 M; apparent Tagg of TS ([3]; 15 μM floxuridine): above 65 °C; % stabilization in screen at 50 µM [2, 5]: 64%; stabilization of recombinant TS in thermal shift assay (TS): did not stabilize
Cc1nc2ccc(CN(C)c3ccc(C(=O)N[C@@H](CCC(=O)O)C(=O)O)s3)cc2c(=O)[nH]1 [raltitrexed] |  | apparent Tagg of TS ([3]; 1 μM raltitrexed): above 65 °C
